Assays:
CDK6 = assay: Cell cycle gene expression array, CDK6; format: cell-based, human; conditions: RBT-7 cells pre-infected with VCN-01; topotecan 2 μM (FIG. 17F)
Method: To assess the expression of genes involved in the cell cycle, 6-well culture plates containing 2×10^6 retinoblastoma cells were used. VCN-01 was added at 50 MOI for 48 h, followed by the addition of topotecan (2 μM), […] (12.5 μM) or culture medium. The cell pellets were collected 24 h later. The samples were plated in the TaqMan® Array of Human Cyclins & Cell Cycle Regulation (Thermo Fisher Scientific). This array contains 92 assays of cell cycle-associated genes and assays of GAPDH, 18S, HPRT1 and GUSB as endogenous control genes. the threshold cycle (Ct) value ≥35 was established as absence of expression. The mean expression value of the controls was used to normalize gene expression values. The thresholds for upregulation and downregulation were 2^−ΔΔCt≥2.0 and 2^−ΔΔct≤0.5, respectively (Livak and Schmittgen, “Analysis of relative gene expression data using real-time quantitative PCR and the 2 (−Delta Delta C(T)) Method,” Methods 2001; 25(4):402-8).
SYBR primers were CDKN1A (Forward 5′-GGACAGGAGAGGAAGACCATGT-3′ (SEQ ID NO: 15), Reverse 5′-TGGAGTGGTAGAATTCTGTCATGC-3′ (SEQ ID NO: 16) and CDK6 (Forward 5′-CCAGGCAGGCTTTTCATTCA-3′ (SEQ ID NO: 17), Reverse 5′-AGGTCCTGGAAGTATGGGTG-3′ (SEQ ID NO: 18).

[1] = Accumulation of topotecan in VCN-01-infected retinoblastoma; format: in vivo, mouse
Description: Accumulation of topotecan in VCN-01-infected retinoblastoma. The Animal Experimental Ethics Committee at the University of Barcelona (animal protocol number 482/18) approved animal experimentation. Retinoblastoma cells in the eyes of athymic nude mice (Envigo, Barcelona, Spain), as previously described (Pascual-Pasto et al., 2016). After 14 days, VCN-01 (3×10^9 vp/eye) was inoculated. After another 14 days, s.c. osmotic pumps loaded with topotecan were implanted to achieve constant topotecan in plasma, as described previously (Pascual-Pasto et al., “Increased delivery of chemotherapy to the vitreous by inhibition of the blood-retinal barrier,” J Control Release 2017; 264:34-44), and collected tumor samples for analysis of topotecan.
Animal experiments were carried out following institutional and European guidelines (EU Directive 2010/63/EU) and the ARRIVE guidelines ([…]). Retinoblastoma cells (2×10^5) were inoculated into the posterior segment of the eye of six week old athymic nude mice using a dull 33G needle, as previously described (Giani et al., 1994). […] Samples were analyzed by high performance liquid chromatography (HLPC) as described previously ([…]).

SMILES: CC[C@@]1(O)C(=O)OCc2c1cc1n(c2=O)Cc2cc3c(CN(C)C)c(O)ccc3nc2-1 [Topotecan, topotecan]
- decrease in expression of CDK6 (CDK6): 15 fold
- biodistribution of topotecan in intraocular tumors ([1]; concomitant treatment with VCN-01 (FIG. 21)): did not change
- concentration at 6 h ([1]; mouse, in vivo, sc, 25 ug/h, osmotic pump, 25 μg/h, athymic nude mice, read-out: topotecan plasma level at steady state): ~100 ng/mL

— patent US20260335388A1, “COMBINATION THERAPIES WITH ONCOLYTIC ADENOVIRUS AND TOPOISOMERASE I INHIBITORS OR PRODRUGS THEREOF” (priority 2022, published 2026)
